In PubChem BioAssay AID2060905 (Molecular Pharmacology Branch, DTP, NCI, 2025):

Test system: 282377-053-R-J1-PDC complex spheroid viability
Test: Anticancer human tumor 282377-053-R-J1-PDC patient-derived colon adenocarcinoma cell line growth inhibition [RAS]
Details: for IC50: curve of first compound; for viability, T/C: stronger effect = lower value; active = viability on the fitted dose curve at most 10% of control; inactive = the rest
Summary of the method: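 Agents were tested in combination matrices in half-log decrements from a top concentration at or near clinical Cmax (10 microM if undetermined). Targets were multi-cell spheroids of tumour lines plus HUVEC and MSC stromal cells.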

[1] = second compound 0.00316 µM, first compound 0.0316 µM
[2] = second compound 0.00316 µM, first compound 0.1 µM
[3] = second compound 0.00316 µM, first compound 0.316 µM
[4] = second compound 0.00316 µM, first compound 1 µM
[5] = second compound 0.00316 µM, first compound 3.16 µM
[6] = second compound 0.00316 µM, first compound 10 µM
[7] = second compound 0.01 µM, first compound 0.0316 µM
[8] = second compound 0.01 µM, first compound 0.1 µM
[9] = second compound 0.01 µM, first compound 0.316 µM
[10] = second compound 0.01 µM, first compound 1 µM
[11] = second compound 0.01 µM, first compound 3.16 µM
[12] = second compound 0.01 µM, first compound 10 µM
[13] = second compound 0.0316 µM, first compound 0.0316 µM
[14] = second compound 0.0316 µM, first compound 0.1 µM
[15] = second compound 0.0316 µM, first compound 0.316 µM
[16] = second compound 0.0316 µM, first compound 1 µM
[17] = second compound 0.0316 µM, first compound 3.16 µM
[18] = second compound 0.0316 µM, first compound 10 µM
[19] = second compound 0.1 µM, first compound 0.0316 µM
[20] = second compound 0.1 µM, first compound 0.1 µM
[21] = second compound 0.1 µM, first compound 0.316 µM
[22] = second compound 0.1 µM, first compound 1 µM
[23] = second compound 0.1 µM, first compound 3.16 µM
[24] = second compound 0.1 µM, first compound 10 µM
[25] = second compound 0.316 µM, first compound 0.0316 µM
[26] = second compound 0.316 µM, first compound 0.1 µM
[27] = second compound 0.316 µM, first compound 0.316 µM
[28] = second compound 0.316 µM, first compound 1 µM
[29] = second compound 0.316 µM, first compound 3.16 µM
[30] = second compound 0.316 µM, first compound 10 µM
[31] = second compound 1 µM, first compound 0.0316 µM
[32] = second compound 1 µM, first compound 0.1 µM
[33] = second compound 1 µM, first compound 0.316 µM
[34] = second compound 1 µM, first compound 1 µM
[35] = second compound 1 µM, first compound 3.16 µM
[36] = second compound 1 µM, first compound 10 µM
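Note: spheroids exposed to agents for seven days before readout.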
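Throughout, for viability, T/C: luminescence viability as percent of DMSO vehicle control wells.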

CC1(O)CCCC1n1c(=O)c(C(F)F)cc2cnc(NC3CCN(S(C)(=O)=O)CC3)nc21 (stereo not given) + C=CC(=O)N1CCN(c2nc(OCC3CCCN3C)nc3c(F)c(-c4nc(N)cc(C)c4C(F)(F)F)c(Cl)cc23)C(C)C1
6.03 µM: IC50 (second compound 0.01 µM)
6.22 µM: IC50 (second compound 0.1 µM)
6.48 µM: IC50 (second compound 1 µM)
6.21 µM: IC50 (second compound 0.316 µM)
5.93 µM: IC50 (second compound 0.0316 µM)
6.01 µM: IC50 (second compound 0.00316 µM)
inactive: viability, T/C [1] 124% | viability, T/C [2] 124% | viability, T/C [3] 134% | viability, T/C [4] 106% | viability, T/C [5] 109% | viability, T/C [7] 118% | viability, T/C [8] 113% | viability, T/C [9] 107% | viability, T/C [10] 122% | viability, T/C [11] 110% | viability, T/C [13] 102% | viability, T/C [14] 141% | viability, T/C [15] 123% | viability, T/C [16] 110% | viability, T/C [17] 107% | viability, T/C [19] 107% | viability, T/C [20] 117% | viability, T/C [21] 124% | viability, T/C [22] 118% | viability, T/C [23] 119% | viability, T/C [25] 108% | viability, T/C [26] 112% | viability, T/C [27] 125% | viability, T/C [28] 111% | viability, T/C [29] 128% | viability, T/C [31] 131% | viability, T/C [32] 131% | viability, T/C [33] 135% | viability, T/C [34] 132% | viability, T/C [35] 129%
active: viability, T/C [6] 2.69% | viability, T/C [12] 2.79% | viability, T/C [18] 3.33% | viability, T/C [24] 2.9% | viability, T/C [30] 2.56% | viability, T/C [36] 2.51%

CCC(CC)c1cc(NC2CCC(N)C2)n2nccc2n1 (stereo not given) + C=CC(=O)N1CCN(c2nc(OCC3CCCN3C)nc3c(F)c(-c4nc(N)cc(C)c4C(F)(F)F)c(Cl)cc23)C(C)C1
inactive: viability, T/C [1] 117% | viability, T/C [2] 101% | viability, T/C [3] 93.8% | viability, T/C [4] 116% | viability, T/C [7] 110% | viability, T/C [8] 98.1% | viability, T/C [9] 92% | viability, T/C [10] 115% | viability, T/C [13] 103% | viability, T/C [14] 97% | viability, T/C [15] 96.3% | viability, T/C [16] 94.5% | viability, T/C [19] 124% | viability, T/C [20] 107% | viability, T/C [21] 113% | viability, T/C [22] 85.3% | viability, T/C [25] 111% | viability, T/C [26] 105% | viability, T/C [27] 109% | viability, T/C [28] 100% | viability, T/C [31] 109% | viability, T/C [32] 103% | viability, T/C [33] 123% | viability, T/C [34] 102%
1.69 µM: IC50 (second compound 0.1 µM)
1.89 µM: IC50 (second compound 1 µM)
1.86 µM: IC50 (second compound 0.316 µM)
1.82 µM: IC50 (second compound 0.0316 µM)
1.9 µM: IC50 (second compound 0.01 µM)
active: viability, T/C [5] 7.62% | viability, T/C [6] 2.24% | viability, T/C [11] 7.28% | viability, T/C [12] 1.55% | viability, T/C [17] 8.89% | viability, T/C [18] 1.69% | viability, T/C [23] 7.78% | viability, T/C [24] 1.54% | viability, T/C [29] 7.41% | viability, T/C [30] 1.9% | viability, T/C [35] 7.89% | viability, T/C [36] 2.25%
1.94 µM: IC50 (second compound 0.00316 µM)

CCN1CCN(Cc2ccc(Nc3ncc(F)c(-c4cc(F)c5nc(C)n(C(C)C)c5c4)n3)nc2)CC1 + C=CC(=O)N1CCN(c2nc(OCC3CCCN3C)nc3c(F)c(-c4nc(N)cc(C)c4C(F)(F)F)c(Cl)cc23)C(C)C1
inactive: viability, T/C (second compound 0.00316 µM, first compound 0.00316 µM) 114% | viability, T/C (second compound 0.00316 µM, first compound 0.01 µM) 106% | viability, T/C [1] 102% | viability, T/C [2] 125% | viability, T/C [3] 131% | viability, T/C [4] 134% | viability, T/C (second compound 0.01 µM, first compound 0.00316 µM) 104% | viability, T/C (second compound 0.01 µM, first compound 0.01 µM) 106% | viability, T/C [7] 91.4% | viability, T/C [8] 112% | viability, T/C [9] 146% | viability, T/C [10] 131% | viability, T/C (second compound 0.0316 µM, first compound 0.00316 µM) 117% | viability, T/C (second compound 0.0316 µM, first compound 0.01 µM) 87.1% | viability, T/C [13] 100% | viability, T/C [14] 121% | viability, T/C [15] 141% | viability, T/C [16] 132% | viability, T/C (second compound 0.1 µM, first compound 0.00316 µM) 97.1% | viability, T/C (second compound 0.1 µM, first compound 0.01 µM) 108% | viability, T/C [19] 100% | viability, T/C [20] 104% | viability, T/C [21] 106% | viability, T/C [22] 135% | viability, T/C (second compound 0.316 µM, first compound 0.00316 µM) 85.5% | viability, T/C (second compound 0.316 µM, first compound 0.01 µM) 115% | viability, T/C [25] 122% | viability, T/C [26] 99.8% | viability, T/C [27] 126% | viability, T/C [28] 126% | viability, T/C (second compound 1 µM, first compound 0.00316 µM) 109% | viability, T/C (second compound 1 µM, first compound 0.01 µM) 104% | viability, T/C [31] 121% | viability, T/C [32] 113% | viability, T/C [33] 138% | viability, T/C [34] 134%
> 1 µM: IC50 (second compound 0.00316 µM) | IC50 (second compound 0.01 µM) | IC50 (second compound 0.0316 µM) | IC50 (second compound 0.1 µM) | IC50 (second compound 0.316 µM) | IC50 (second compound 1 µM)

Cc1nc(N2CCC3(CC2)COC(C)C3N)c(CO)nc1Sc1ccnc(N)c1Cl (stereo not given) + C=CC(=O)N1CCN(c2nc(OCC3CCCN3C)nc3c(F)c(-c4nc(N)cc(C)c4C(F)(F)F)c(Cl)cc23)C(C)C1
inactive: viability, T/C [1] 111% | viability, T/C [2] 101% | viability, T/C [3] 118% | viability, T/C [4] 103% | viability, T/C [5] 108% | viability, T/C [6] 116% | viability, T/C [7] 100% | viability, T/C [8] 122% | viability, T/C [9] 103% | viability, T/C [10] 109% | viability, T/C [11] 92.5% | viability, T/C [12] 127% | viability, T/C [13] 93.6% | viability, T/C [14] 98.3% | viability, T/C [15] 109% | viability, T/C [16] 82.8% | viability, T/C [17] 76.3% | viability, T/C [18] 124% | viability, T/C [19] 89.5% | viability, T/C [20] 92.4% | viability, T/C [21] 110% | viability, T/C [22] 112% | viability, T/C [23] 105% | viability, T/C [24] 110% | viability, T/C [25] 103% | viability, T/C [26] 96.6% | viability, T/C [27] 85.5% | viability, T/C [28] 101% | viability, T/C [29] 100% | viability, T/C [30] 108% | viability, T/C [31] 106% | viability, T/C [32] 113% | viability, T/C [33] 118% | viability, T/C [34] 86.2% | viability, T/C [35] 110% | viability, T/C [36] 101%
> 10 µM: IC50 (second compound 0.00316 µM) | IC50 (second compound 0.01 µM) | IC50 (second compound 0.0316 µM) | IC50 (second compound 0.1 µM) | IC50 (second compound 0.316 µM) | IC50 (second compound 1 µM)

NC1c2ccccc2OC12CCN(c1cnc3c(N4CCCc5ncccc54)n[nH]c3n1)CC2 (stereo not given) + C=CC(=O)N1CCN(c2nc(OCC3CCCN3C)nc3c(F)c(-c4nc(N)cc(C)c4C(F)(F)F)c(Cl)cc23)C(C)C1
> 10 µM: IC50 (second compound 0.00316 µM) | IC50 (second compound 0.01 µM) | IC50 (second compound 0.0316 µM) | IC50 (second compound 0.1 µM) | IC50 (second compound 0.316 µM) | IC50 (second compound 1 µM)
inactive: viability, T/C [1] 114% | viability, T/C [2] 104% | viability, T/C [3] 102% | viability, T/C [4] 95% | viability, T/C [5] 105% | viability, T/C [6] 79% | viability, T/C [7] 89.9% | viability, T/C [8] 112% | viability, T/C [9] 99.1% | viability, T/C [10] 118% | viability, T/C [11] 93.8% | viability, T/C [12] 86.5% | viability, T/C [13] 106% | viability, T/C [14] 105% | viability, T/C [15] 92.9% | viability, T/C [16] 92.2% | viability, T/C [17] 90.3% | viability, T/C [18] 83.5% | viability, T/C [19] 82.1% | viability, T/C [20] 87.8% | viability, T/C [21] 84.1% | viability, T/C [22] 108% | viability, T/C [23] 122% | viability, T/C [24] 84.2% | viability, T/C [25] 88% | viability, T/C [26] 98.6% | viability, T/C [27] 95.8% | viability, T/C [28] 96.5% | viability, T/C [29] 113% | viability, T/C [30] 91.1% | viability, T/C [31] 97.5% | viability, T/C [32] 106% | viability, T/C [33] 103% | viability, T/C [34] 104% | viability, T/C [35] 104% | viability, T/C [36] 86.6%
